Experimental data: patent US10980889B1 (Revolution Medicines, Inc., priority 2018, dated 2021)

Key:
P-P70S6K (T389) = assay: Cell based AlphaLISA assay, inhibition of P-P70S6K (T389) in MDA-MB-468 cells (mTORC1 substrate); conditions: AlphaLisa, two to four hours at 37° C.; for IC50: Homo sapiens, 4 h, read-out: pIC50 for Inhibition of mTORC1 and mTORC2 Substrate Phosphorylation p-P70S6K-(T389) (converted)
Experimental: (§1) Cell Based AlphaLISA Assays For Determining IC50 For Inhibition of P-Akt (S473), P-4E-BP1(T37/46), and P-P70S6K (T389) in MDA-MB-468 Cells
(§2) mTOR Kinase Cellular Assay
(§3) To measure functional activity of mTORC1 and mTORC2 in cells the phosphorylation of 4EBPT (Thr37/46) and P70S6K (Thr389), and AKT1/2/3 (Ser473) was monitored using AlphaLisa SureFire Ultra Kits (Perkin Elmer). […] Incubations were terminated by removal of the assay buffer and addition of lysis buffer provided with the assay kit. Samples were processed according to the manufacturer's instructions. The Alpha signal from the respective phosphoproteinswas measured in duplicate using a microplate reader (Envision, Perkin-Elmer or Spectramax M5, Molecular Devices). Inhibitor concentration response curves were analyzed using normalized IC50 regression curve filling with control based normalization.

P-Akt (S473) = assay: Cell based AlphaLISA assay, inhibition of P-Akt (S473) in MDA-MB-468 cells (mTORC2 substrate); conditions: AlphaLisa, two to four hours at 37° C.; for IC50: Homo sapiens, 4 h, read-out: pIC50 for Inhibition of mTORC1 and mTORC2 Substrate Phosphorylation p-AKT1/2/3-(S473) (converted)
Experimental: as §1, §2, §3

P-4E-BP1 (T37/46) = assay: Cell based AlphaLISA assay, inhibition of P-4E-BP1 (T37/46) in MDA-MB-468 cells (mTORC1 substrate); conditions: AlphaLisa, two to four hours at 37° C.; for IC50: Homo sapiens, 4 h, read-out: pIC50 for Inhibition of mTORC1 and mTORC2 Substrate Phosphorylation P-4E-BP1-(T37/46) (converted)
Experimental: as §1, §2, §3

## CO[C@H]1C[C@@H]2CC[C@@H](C)[C@@](O)(O2)C(=O)C(=O)N2CCCC[C@H]2C(=O)O[C@H]([C@H](C)C[C@@H]2CC[C@@H](OC(=O)NCc3cnc(N4CCN(c5ncc(C(=O)NCCOCCOCCOCCOCCC(=O)N6CCc7cc(Cn8nc(-c9cnc%10[nH]ccc%10c9)c9c(N)ncnc98)ccc7C6)cn5)CC4CO)nc3)[C@H](OC)C2)CC(=O)[C@H](C)/C=C(\C)[C@@H](O)[C@@H](OC)C(=O)[C@H](C)C[C@H](C)/C=C/C=C/C=C/1C (stereo partly drawn) [Example 86]
P-P70S6K (T389)
  IC50: < 1 nM
P-Akt (S473)
  IC50: 3.16 to 31.6 nM
P-4E-BP1 (T37/46)
  IC50: < 3.16 nM

## CO[C@H]1C[C@@H]2CC[C@@H](C)[C@@](O)(O2)C(=O)C(=O)N2CCCC[C@H]2C(=O)O[C@H]([C@H](C)C[C@@H]2CC[C@@H](OC(=O)NCc3cnc(N4CCN(C(=O)CN(C)CC(=O)NCCOCCOCCC(=O)N5CCc6cc(Cn7nc(-c8ccc9oc(N)nc9c8)c8c(N)ncnc87)ccc6C5)CC4)nc3)[C@H](OC)C2)CC(=O)[C@H](C)/C=C(\C)[C@@H](O)[C@@H](OC)C(=O)[C@H](C)C[C@H](C)/C=C/C=C/C=C/1C [Example 87]
P-P70S6K (T389)
  IC50: < 1 nM
P-Akt (S473)
  IC50: 3.16 to 31.6 nM
P-4E-BP1 (T37/46)
  IC50: < 3.16 nM

## CO[C@H]1C[C@@H]2CC[C@@H](C)[C@@](O)(O2)C(=O)C(=O)N2CCCC[C@H]2C(=O)O[C@H]([C@H](C)C[C@@H]2CC[C@@H](OC(=O)NCc3cnc(N4CCN(CCOCCOCCOCCOCCC(=O)N5CCc6cc(Cn7nc(-c8ccc9oc(N)nc9c8)c8c(N)ncnc87)ccc6C5)CC4)nc3)[C@H](OC)C2)CC(=O)[C@H](C)/C=C(\C)[C@@H](O)[C@@H](OC)C(=O)[C@H](C)C[C@H](C)/C=C/C=C/C=C/1C [Example 88]
P-P70S6K (T389)
  IC50: < 1 nM
P-Akt (S473)
  IC50: 3.16 to 31.6 nM
P-4E-BP1 (T37/46)
  IC50: < 3.16 nM

## CO[C@H]1C[C@@H]2CC[C@@H](C)[C@@](O)(O2)C(=O)C(=O)N2CCCC[C@H]2C(=O)O[C@H]([C@H](C)C[C@@H]2CC[C@@H](OC(=O)NCc3cnc(N4CCN(CCOCCOCCOCCOCCC(=O)N5CCc6cc(Cn7nc(-c8ccc9oc(N)nc9c8)c8c(N)ncnc87)ccc6C5)CC4)nc3)[C@H](OC)C2)C[C@@H](OC)[C@H](C)/C=C(\C)[C@@H](O)[C@@H](OC)C(=O)[C@H](C)C[C@H](C)/C=C/C=C/C=C/1C [Example 89]
P-P70S6K (T389)
  IC50: < 1 nM
P-Akt (S473)
  IC50: > 1000 nM
P-4E-BP1 (T37/46)
  IC50: < 3.16 nM

## CO[C@H]1C[C@@H]2CC[C@@H](C)[C@@](O)(O2)C(=O)C(=O)N2CCCC[C@H]2C(=O)O[C@H]([C@H](C)C[C@@H]2CC[C@@H](OC(=O)NCc3cnc(N4CCN(CCOCCOCCOCCOCCC(=O)NCCCCn5nc(-c6ccc7oc(N)nc7c6)c6c(N)ncnc65)CC4)nc3)[C@H](OC)C2)C[C@@H](OC)[C@H](C)/C=C(\C)[C@@H](O)[C@@H](OC)C(=O)[C@H](C)C[C@H](C)/C=C/C=C/C=C/1C [Example 90]
P-P70S6K (T389)
  IC50: < 1 nM
P-Akt (S473)
  IC50: > 1000 nM
P-4E-BP1 (T37/46)
  IC50: > 1000 nM

## CO[C@H]1C[C@@H]2CC[C@@H](C)[C@@](O)(O2)C(=O)C(=O)N2CCCC[C@H]2C(=O)O[C@H]([C@H](C)C[C@@H]2CC[C@@H](OC(=O)NCc3cnc(N4CCN(C(=O)CN(C)CC(=O)NCCOCCOCCC(=O)N5CCc6cc(Cn7nc(-c8ccc9oc(N)nc9c8)c8c(N)ncnc87)ccc6C5)CC4)nc3)[C@H](OC)C2)C[C@@H](OC)[C@H](C)/C=C(\C)[C@@H](O)[C@@H](OC)C(=O)[C@H](C)C[C@H](C)/C=C/C=C/C=C/1C [Example 91]
P-P70S6K (T389)
  IC50: < 1 nM
P-Akt (S473)
  IC50: 3.16 to 31.6 nM
P-4E-BP1 (T37/46)
  IC50: < 3.16 nM

## CO[C@H]1C[C@@H]2CC[C@@H](C)[C@@](O)(O2)C(=O)C(=O)N2CCCCC2C(=O)O[C@H]([C@H](C)C[C@@H]2CC[C@@H](OC(=O)NCc3cnc(N4CCN(C(=O)CN(C)CC(=O)NCCOCCOCCC(=O)NCCCCn5nc(-c6ccc7oc(N)nc7c6)c6c(N)ncnc65)CC4)nc3)[C@H](OC)C2)C[C@@H](OC)[C@H](C)/C=C(\C)[C@@H](O)[C@@H](OC)C(=O)[C@H](C)C[C@H](C)/C=C/C=C/C=C/1C (stereo partly drawn) [Example 92]
P-P70S6K (T389)
  IC50: < 1 nM
P-Akt (S473)
  IC50: 3.16 to 31.6 nM
P-4E-BP1 (T37/46)
  IC50: < 3.16 nM

## CO[C@H]1C[C@@H]2CC[C@@H](C)[C@@](O)(O2)C(=O)C(=O)N2CCCC[C@H]2C(=O)O[C@H]([C@H](C)C[C@@H]2CC[C@@H](OC(=O)NCc3cnc(N4CCN(c5ncc(C(=O)NCCOCCOCCOCCOCCC(=O)N6CCc7cc(Cn8nc(-c9ccc%10oc(N)nc%10c9)c9c(N)ncnc98)ccc7C6)c(N)n5)CC4)nc3)[C@H](OC)C2)C[C@@H](OC)[C@H](C)/C=C(\C)[C@@H](O)[C@@H](OC)C(=O)[C@H](C)C[C@H](C)/C=C/C=C/C=C/1C [Example 94]
P-P70S6K (T389)
  IC50: < 1 nM
P-Akt (S473)
  IC50: < 3.16 nM
P-4E-BP1 (T37/46)
  IC50: < 3.16 nM

## CO[C@H]1C[C@@H]2CC[C@@H](C)[C@@](O)(O2)C(=O)C(=O)N2CCCC[C@H]2C(=O)O[C@H]([C@H](C)C[C@@H]2CC[C@@H](OC(=O)NCc3cnc(N4CCN(c5ncc(C(=O)N(C)CCOCCOCCOCCOCCC(=O)N6CCc7cc(Cn8nc(-c9ccc%10oc(N)nc%10c9)c9c(N)ncnc98)ccc7C6)c(N)n5)CC4)nc3)[C@H](OC)C2)C[C@@H](OC)[C@H](C)/C=C(\C)[C@@H](O)[C@@H](OC)C(=O)[C@H](C)C[C@H](C)/C=C/C=C/C=C/1C [Example 95]
P-P70S6K (T389)
  IC50: < 1 nM
P-Akt (S473)
  IC50: 3.16 to 31.6 nM
P-4E-BP1 (T37/46)
  IC50: < 3.16 nM

## CO[C@H]1C[C@@H]2CC[C@@H](C)[C@@](O)(O2)C(=O)C(=O)N2CCCC[C@H]2C(=O)O[C@H]([C@H](C)C[C@@H]2CC[C@@H](OC(=O)NCc3cnc(N4CCN(c5ncc(C(=O)NCCOCCOCCOCCOCCC(=O)N6CCc7cc(Cn8nc(-c9cnc%10[nH]ccc%10c9)c9c(N)ncnc98)ccc7C6)c(N)n5)CC4)nc3)[C@H](OC)C2)CC(=O)[C@H](C)/C=C(\C)[C@@H](O)[C@@H](OC)C(=O)[C@H](C)C[C@H](C)/C=C/C=C/C=C/1C [Example 96]
P-P70S6K (T389)
  IC50: < 1 nM
P-Akt (S473)
  IC50: 31.6 to 1000 nM
P-4E-BP1 (T37/46)
  IC50: < 3.16 nM

## CO[C@H]1C[C@@H]2CC[C@@H](C)[C@@](O)(O2)C(=O)C(=O)N2CCCC[C@H]2C(=O)O[C@H]([C@H](C)C[C@@H]2CC[C@@H](OC(=O)N3CCc4nc(N5CCN(c6ncc(C(=O)NCCOCCOCCOCCOCCC(=O)N7CCc8cc(Cn9nc(-c%10cnc%11[nH]ccc%11c%10)c%10c(N)ncnc%109)ccc8C7)c(N)n6)CC5)ncc4C3)[C@H](OC)C2)CC(=O)[C@H](C)/C=C(\C)[C@@H](O)[C@@H](OC)C(=O)[C@H](C)C[C@H](C)/C=C/C=C/C=C/1C [Example 97]
P-P70S6K (T389)
  IC50: < 1 nM
P-Akt (S473)
  IC50: 3.16 to 31.6 nM
P-4E-BP1 (T37/46)
  IC50: < 3.16 nM

## CO[C@H]1C[C@@H]2CC[C@@H](C)[C@@](O)(O2)C(=O)C(=O)N2CCCC[C@H]2C(=O)O[C@H]([C@H](C)C[C@@H]2CC[C@@H](OC(=O)NC3CCN(CC(=O)NCCOCCOCCOCCOCCOCCOCCC(=O)N4CCc5cc(Cn6nc(-c7ccc8oc(N)nc8c7)c7c(N)ncnc76)ccc5C4)CC3)[C@H](OC)C2)C[C@@H](O)[C@H](C)/C=C(\C)[C@@H](O)[C@@H](OC)C(=O)[C@H](C)C[C@H](C)/C=C/C=C/C=C/1C [Example 98]
P-P70S6K (T389)
  IC50: < 1 nM
P-Akt (S473)
  IC50: 3.16 to 31.6 nM
P-4E-BP1 (T37/46)
  IC50: < 3.16 nM

## CO[C@H]1C[C@@H]2CC[C@@H](C)[C@@](O)(O2)C(=O)C(=O)N2CCCC[C@H]2C(=O)O[C@H]([C@H](C)C[C@@H]2CC[C@@H](OC(=O)NC3CCN(CC(=O)NCCOCCOCCOCCOCCOCCOCCC(=O)N4CCc5cc(Cn6nc(-c7ccc8oc(N)nc8c7)c7c(N)ncnc76)ccc5C4)CC3)[C@H](OC)C2)C[C@@H](OC)[C@H](C)/C=C(\C)[C@@H](O)[C@@H](OC)C(=O)[C@H](C)C[C@H](C)/C=C/C=C/C=C/1C [Example 99]
P-P70S6K (T389)
  IC50: < 1 nM
P-Akt (S473)
  IC50: > 1000 nM
P-4E-BP1 (T37/46)
  IC50: < 3.16 nM

## CO[C@H]1C[C@@H]2CC[C@@H](C)[C@@](O)(O2)C(=O)C(=O)N2CCCC[C@H]2C(=O)O[C@H]([C@H](C)C[C@@H]2CC[C@@H](OC(=O)N3CCC(N)(C(=O)NCCOCCOCCOCCOCCOCCOCCC(=O)N4CCc5cc(Cn6nc(-c7ccc8oc(N)nc8c7)c7c(N)ncnc76)ccc5C4)CC3)[C@H](OC)C2)C[C@@H](O)[C@H](C)/C=C(\C)[C@@H](O)[C@@H](OC)C(=O)[C@H](C)C[C@H](C)/C=C/C=C/C=C/1C [Example 101]
P-P70S6K (T389)
  IC50: < 1 nM
P-Akt (S473)
  IC50: 3.16 to 31.6 nM
P-4E-BP1 (T37/46)
  IC50: < 3.16 nM

## CO[C@H]1C[C@@H]2CC[C@@H](C)[C@@](O)(O2)C(=O)C(=O)N2CCCC[C@H]2C(=O)O[C@H]([C@H](C)C[C@@H]2CC[C@@H](OC(=O)NCc3cnc(N4CCN(C(=O)CN(C)CC(=O)NCCOCCOCCC(=O)N5CCc6cc(Cn7nc(-c8ccc9oc(N)nc9c8)c8c(N)ncnc87)ccc6C5)CC4)nc3)[C@H](OC)C2)C[C@@H](OC)[C@H](C)/C=C(\C)[C@@H](O)[C@@H](OC)C(=O)[C@H](C)C[C@H](C)/C=C/C=C/C=C/1C [Example 103]
P-P70S6K (T389)
  pIC50 for Inhibition of mTORC1 and mTORC2 Substrate Phosphorylation p-P70S6K-(T389): +++ (≥9)
P-Akt (S473)
  pIC50 for Inhibition of mTORC1 and mTORC2 Substrate Phosphorylation p-AKT1/2/3-(S473): − (<6)
P-4E-BP1 (T37/46)
  pIC50 for Inhibition of mTORC1 and mTORC2 Substrate Phosphorylation P-4E-BP1-(T37/46): − (<6)
